Test results from PMC8510480, “Searching Anti-Zika Virus Activity in 1H-1,2,3-Triazole Based Compounds” (Molecules, 2021).
Where two headings read alike, the source gives them in different places.

Columns and labels:
ZIKV [1] = assay: Pre-treatment test to ZIKV in Vero cells; type: cell-based, Zika virus; settings: 1 h pre-treatment at 136.90, 68.45, 34.22 and 17.11 µM, then ZIKV MOI 0.1, 5 days
Method: Since compound 4b was the only one in the series with activity against ZIKV, further experiments were conducted to elucidate its mechanism of action in cells that were pre-treated. To this, cells were pre-treated with varying concentrations of compound 4b, washed, and then infected with ZIKV. The concentrations used were chosen with the aim to preserve cellular viability and, thus, the maximum concentration was the previously determined CC20 value (136.90, 68.45, 34.22 and 17.11 µM).
Figure 5 Graphic result for compound 4b in the pre-treatment test to ZIKV. Vero cells in a 48-well cell plate were treated with 4b in different concentrations and after 1 h the supernatant was discarded. Cells were washed with PBS 1X, ZIKV MOI 0.1 was inoculated, and the plate was incubated again. After five days, the supernatant was collected and titrated by TCID50 method. The experiment was conducted in triplicates and values are the mean and the SD. […]
96-well plates with 1 × 10^4 cell/well were used in this assay and prepared 24 h previously. […] The reading was performed in an inverted optical microscope AE2000, Motic (Motic, Kowloon Bay, Hong Kong) counting positives wells by the presence of cytopathic effect and the determination of the sample title was performed with the aid of the Microsoft Office Excel program (Microsoft® Office, Redmond, WA, USA). […]

ZIKV [2] = assay: Post-infection test with ZIKV in Vero cells; type: cell-based, Zika virus; settings: for inhibition at 136.9 µM: CC20 (4b 136.90 µM; 6MMPr 60.50 µM); for inhibition at 136.9 µM / inhibition at 68.45 µM / inhibition at 34.23 µM / inhibition at 17.11 µM: read-out: % Viral Inhibition; for inhibition at 68.45 µM: CC20/2 (4b 68.45 µM; 6MMPr 30.25 µM); for inhibition at 34.23 µM: CC20/4 (4b 34.23 µM; 6MMPr 15.13 µM); for inhibition at 17.11 µM: CC20/8 (4b 17.11 µM; 6MMPr 7.6 µM)
Method: We then investigated the activity of compound 4b after ZIKV infection in cells. As already noted in the screening test, 4b reduced ZIKV growth to levels similar to 6MMPr, a positive control previously described by our group. As in the pre-treatment test, four different concentrations were used, with the maximum being CC20 (136.90, 68.45, 34.22 and 17.11 µM). […] It is worth highlighting the constant decrease in the viral titer, even in lower concentrations, while the positive control 6MMPr reduces it only in the highest concentrations.
Statistical analysis compared the concentrations of each compound at each collection time (3 d.p.i. and 5 d.p.i.) with a t-test.
Figure 6 Comparison of anti-ZIKV activity between 6MMPr and 4b after three- and five-days post-infection (d.p.i.). 6MMPr and compound 4b were submitted to a post-infection test when Vero cells was infected with ZIKV at MOI 0.1 for 2 h then treated with compounds. Concentrations used in the test corresponded to CC20 (4b = 136.90 µM; 6MMPr = 60.50 µM), CC20/2 (4b = 68.45 µM; 6MMPr = 30.25 µM), CC20/4 (4b = 34.22 µM; 6MMPr = 15.13 µM) and CC20/8 (4b = 17.11 µM; 6MMPr = 7.56 µM). The experiment was done in triplicates and values are the mean and the SD. Statistical analysis was made between compounds using t-test on GraphPad Prism program. * = significative; ns = not statistically significant for p < 0.05. (a) 3 d.p.i. from both compounds. (b) 5 d.p.i. from both compounds.
96-well plates with 1 × 10^4 cell/well were used in this assay and prepared 24 h previously. Seven serial dilutions of the virus were prepared in DMEM + 2% FBS culture medium. After removing the culture medium from the plate, 50 µL of each dilution was added to the wells in several repetitions. The plate was incubated at 37 °C and 5% atm CO2 for 1 h. After this interval, each well of the plate received an additional 100 µL of DMEM + 2% FBS culture medium. The plate was incubated again, in the same parameters, for 5 days. Some columns of the plate were selected for use as a cell control (culture medium only, no virus). The reading was performed in an inverted optical microscope AE2000, Motic (Motic, Kowloon Bay, Hong Kong) counting positives wells by the presence of cytopathic effect and the determination of the sample title was performed with the aid of the Microsoft Office Excel program (Microsoft® Office, Redmond, WA, USA).
48-well plates with 2.5 × 10^4 cells/well were prepared 24 h previously. A ZIKV solution at MOI 0.1 was inoculated into the wells and the cells incubated at 37 °C and 5% CO2 atmosphere. After 2 h, the culture medium was removed, and the wells were washed with 1X PBS. 2:1 dilution of 4b (136.90 µM, 68.45 µM, 34.22 µM and 17.11 µM) and 6MMPr (60.50 µM, 30.25 µM, 15.13 µM and 7.56 µM) were added in triplicate. The cells were again incubated for 72 h and 120 h. The supernatants from the wells were collected and titrated.

Compound: O=C1C(Br)=C(NCc2cn(CN3C(=O)c4ccccc4C3=O)nn2)C(=O)c2ccccc21 [Compound 4b]
- change in virus titers vs negative control (ZIKV [1]): no significant change in virus titers
- inhibition at 136.9 µM (ZIKV [2]; Zika virus, 72 h, 3 d.p.i.): 94.9%
- inhibition at 68.45 µM (ZIKV [2]; Zika virus, 72 h, 3 d.p.i.): 85.6%
- inhibition at 34.23 µM (ZIKV [2]; Zika virus, 72 h, 3 d.p.i.): 85.8%
- inhibition at 17.11 µM (ZIKV [2]; Zika virus, 72 h, 3 d.p.i., negative = increased virus titer compared to control): 88.8%
- inhibition at 136.9 µM (ZIKV [2]; Zika virus, 120 h, 5 d.p.i.): 97.5%
- inhibition at 68.45 µM (ZIKV [2]; Zika virus, 120 h, 5 d.p.i.): 93.7%
- inhibition at 34.23 µM (ZIKV [2]; Zika virus, 120 h, 5 d.p.i.): 90.8%
- inhibition at 17.11 µM (ZIKV [2]; Zika virus, 120 h, 5 d.p.i.): 96.8%
- IC50 (ZIKV [2]; Zika virus, Vero, read-out: IC50 (50% inhibition concentration, virus replication)): 146 µM
- % Viral Inhibition (ZIKV [2]; post-infection test, Table 4, concentration and time not stated): 91.1%
- effect on growth of the virus (viral titer) (ZIKV [2]; post-infection, four concentrations from CC20 to CC20/8, 3 and 5 d.p.i.): inhibits the growth of the virus at all concentrations used
- SI (selectivity index) (ZIKV [2]; ratio between the CC50 and IC50 values): 2.3
